Patent US9914730B2, “Azaquinazoline inhibitors of Atypical protein Kinase C” (Ignyta, Inc., priority 2012, dated 2018)

target: T1, full-length human PKCι (Homo sapiens, UniProt P41743); experiment: PKCι IC50 IMAP assay, full-length PKCι at 150 μM ATP; assay type: biochemical; settings: read-out: IC50 in IMAP assay against full length PKCi at 150 μM ATP
T1 construct: Recombinant, full-length human PKCι expressed in Sf21 insect cells is also commercially available; purchased; host or cells: Sf21 insect cells
T1 sequence (P41743 1-596): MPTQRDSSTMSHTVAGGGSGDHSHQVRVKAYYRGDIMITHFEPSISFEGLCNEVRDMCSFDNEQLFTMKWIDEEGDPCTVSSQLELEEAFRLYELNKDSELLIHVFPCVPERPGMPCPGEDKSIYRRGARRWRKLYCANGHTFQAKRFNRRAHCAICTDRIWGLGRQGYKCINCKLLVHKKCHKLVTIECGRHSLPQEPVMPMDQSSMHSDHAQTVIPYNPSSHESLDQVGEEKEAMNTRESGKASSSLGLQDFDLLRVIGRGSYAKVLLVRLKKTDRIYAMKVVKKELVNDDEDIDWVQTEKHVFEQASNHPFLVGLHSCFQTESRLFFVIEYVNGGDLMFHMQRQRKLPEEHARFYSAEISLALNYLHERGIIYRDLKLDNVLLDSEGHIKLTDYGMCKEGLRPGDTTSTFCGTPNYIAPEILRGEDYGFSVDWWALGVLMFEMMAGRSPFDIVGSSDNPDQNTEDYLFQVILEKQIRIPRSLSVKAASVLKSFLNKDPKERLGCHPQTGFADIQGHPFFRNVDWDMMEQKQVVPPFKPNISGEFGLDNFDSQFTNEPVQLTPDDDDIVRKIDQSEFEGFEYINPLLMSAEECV
Method in brief: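 Compounds in 4% final DMSO are mixed with Sf21-derived full-length human PKCι (typically 15 pM) and 100 nM FAM-labelled pseudosubstrate peptide, then started with 150 μM ATP. Reaction runs 60 min at room temperature, is quenched with IMAP development reagent for 2 h, and fluorescence polarisation is measured to derive IC50.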

| IC50 | Compound |
| --- | --- |
| 0.1 to 1 µM | Cc1ccc(-c2nccc3c(NC[C@@H](N)Cc4ccccc4)nc(-c4ccncc4)nc23)s1 [Example 111, N-[(2S)-2-amino-3-phenylpropyl]-8-(5-methyl-thiophen-2-yl)-2-(pyridin-4-yl)pyrido[3,4-d]pyrimidin-4-amine] |
| 10 to 40 µM | Cc1noc(C)c1-c1nccc2c(NC[C@@H](N)Cc3ccccc3)nc(-c3ccncc3)nc12 [Example 112, N-[(2S)-2-amino-3-phenylpropyl]-8-(dimethyl-1,2-oxazol-4-yl)-2-(pyridin-4-yl)-pyrido[3,4-d]-pyrimidin-4-amine] |
| 0.1 to 1 µM | N[C@H](CNc1nc(-c2ccncc2)nc2c(-c3ccsc3)nccc12)Cc1ccccc1 [Example 114, N-[(2S)-2-amino-3-phenylpropyl]-2-(pyridin-4-yl)-8-(thiophen-3-yl)pyrido[3,4-d]pyrimidin-4-amine] |
| < 0.1 µM | N[C@H](CNc1nc(-c2ccncc2)nc2c(-c3ccco3)nccc12)Cc1ccccc1 [Example 115, N-[(2S)-2-amino-3-phenylpropyl]-8-(furan-2-yl)-2-(pyridin-4-yl)pyrido[3,4-d]pyrimidin-4-amine] |
| 1 to 10 µM | N[C@H](CNc1nc(-c2ccncc2)nc2c(-c3ccc4[nH]cnc4c3)nccc12)Cc1ccccc1 [Example 116, N-[(2S)-2-amino-3-phenylpropyl]-8-(1H-1,3-benzodiazol-5-yl)-2-(pyridin-4-yl)pyrido[3,4-d]pyrimidin-4-amine] |
| 1 to 10 µM | CCOc1cccc(-c2nccc3c(NC[C@@H](N)Cc4ccccc4)nc(-c4ccncc4)nc23)c1 [Example 117, N-[(2S)-2-amino-3-phenylpropyl]-8-(3-ethoxy-phenyl)-2-(pyridin-4-yl)-pyrido[3,4-d]-pyrimidin-4-amine] |
| 1 to 10 µM | Cc1ccccc1-c1nccc2c(NC[C@@H](N)Cc3ccccc3)nc(-c3ccncc3)nc12 [Example 118, N-[(2S)-2-amino-3-phenylpropyl]-8-(2-methyl-phenyl)-2-(pyridin-4-yl)-pyrido[3,4-d]-pyrimidin-4-amine] |
| 1 to 10 µM | Cc1cccc(-c2nccc3c(NC[C@@H](N)Cc4ccccc4)nc(-c4ccncc4)nc23)c1 [Example 119, N-[(2S)-2-amino-3-phenylpropyl]-8-(3-methyl-phenyl)-2-(pyridin-4-yl)-pyrido[3,4-d]-pyrimidin-4-amine] |
| 1 to 10 µM | N[C@H](CNc1nc(-c2ccncc2)nc2c(-c3cccc(-c4ccn[nH]4)c3)nccc12)Cc1ccccc1 [Example 120, N-[(2S)-2-amino-3-phenylpropyl]-8-[3-(1H-pyrazol-5-yl)phenyl]-2-(pyridin-4-yl)pyrido[3,4-d]pyrimidin-4-amine] |
| 0.1 to 1 µM | NCc1ccc(-c2nccc3c(NC[C@@H](N)Cc4ccccc4)nc(-c4ccncc4)nc23)o1 [Example 121, N-[(2S)-2-amino-3-phenylpropyl]-8-[5-(amino-methyl)-furan-2-yl]-2-(pyridin-4-yl)pyrido[3,4-d]pyrimidin-4-amine] |
| 0.1 to 1 µM | N[C@@H](CNc1nc(-c2ccncc2)nc2c(-c3ccccn3)nccc12)Cc1ccccc1 [Example 122, (R)-3-Phenyl-N^1-(2-pyridin-4-yl-8-pyridin-2-yl-pyrido[3,4-d]pyrimidin-4-yl)-propane-1,2-diamine] |
| 1 to 10 µM | N[C@@H](CNc1nc(-c2ccncc2)nc2c(Nc3ccccc3)nccc12)Cc1ccccc1 [Example 123, N^4-((R)-2-Amino-3-phenyl-propyl)-N^8-phenyl-2-pyridin-4-yl-pyrido[3,4-d]pyrimidine-4,8-diamine] |
| 1 to 10 µM | N[C@H](CNc1nc(-c2ccncc2)nc2c(Nc3ncccn3)nccc12)Cc1ccccc1 [Example 124, 4-N-[(2S)-2-amino-3-phenylpropyl]-2-(pyridin-4-yl)-8-N-(pyrimidin-2-yl)pyrido[3,4-d]pyrimidine-4,8-diamine] |
| 1 to 10 µM | N[C@H](CNc1nc(-c2ccncc2)nc2c(Nc3cccc(Cl)c3)nccc12)Cc1ccccc1 [Example 125, 4-N-[(2S)-2-amino-3-phenylpropyl]-8-N-(3-chlorophenyl)-2-(pyridin-4-yl)pyrido[3,4-d]pyrimidine-4,8-diamine] |
| 0.1 to 1 µM | N[C@H](CNc1nc(-c2ccncc2)nc2c(Nc3nc[nH]n3)nccc12)Cc1ccccc1 [Example 126, 4-N-[(2S)-2-amino-3-phenylpropyl]-2-(pyridin-4-yl)-8-N-(1H-1,2,4-triazol-3-yl)pyrido[3,4-d]pyrimidine-4,8-diamine] |
| 10 to 40 µM | CN1CCN(c2nccc3c(NC[C@H](N)Cc4ccccc4)nc(-c4ccncc4)nc23)CC1 [Example 127, (R)—N^1-[8-(4-Methyl-piperazin-1-yl)-2-pyridin-4-yl-pyrido[3,4-d]pyrimidin-4-yl]-3-phenyl-propane-1,2-diamine] |
| 1 to 10 µM | N[C@@H](CNc1nc(-c2ccncc2)nc2c(Sc3ccccc3)nccc12)Cc1ccccc1 [Example 128, (R)-3-Phenyl-N^1-(8-phenylsulfanyl-2-pyridin-4-yl-pyrido[3,4-d]pyrimidin-4-yl)-propane-1,2-diamine] |

| IC50 | Compound |
| --- | --- |
| 0.1 to 1 µM | N[C@H](CNc1nc(-c2ccncc2)nc2c(Oc3ccccc3)nccc12)Cc1ccccc1 [Example 129, N-[(2S)-2-amino-3-phenylpropyl]-8-phenoxy-2-(pyridin-4-yl)pyrido[3,4-d]pyrimidin-4-amine] |
| 1 to 10 µM | CSc1nccc2c(NC[C@@H](N)Cc3ccccc3)nc(-c3ccncc3)nc12 [Example 130, N-[(2S)-2-amino-3-phenylpropyl]-8-(methylsulfanyl)-2-(pyridin-4-yl)pyrido[3,4-d]pyrimidin-4-amine] |
| < 0.1 µM | Clc1cncc2nc(-c3ccncc3)nc(N3CCNCC3)c12 [Example 132, 5-Chloro-4-piperazin-1-yl-2-pyridin-4-yl-pyrido[3,4-d]pyrimidine] |
| < 0.1 µM | Brc1cncc2nc(-c3ccncc3)nc(N3CCNCC3)c12 [Example 133, 1-[5-bromo-2-(pyridin-4-yl)pyrido[3,4-d]pyrimidin-4-yl]piperazine] |
| < 0.1 µM | Clc1ncc(Cl)c2c(N3CCNCC3)nc(-c3ccncc3)nc12 [Example 134, 1-[5,8-dichloro-2-(pyridin-4-yl)pyrido[3,4-d]pyrimidin-4-yl]piperazine] |
| < 0.1 µM | CCCCc1cncc2nc(-c3ccncc3)nc(N3CCNCC3)c12 [Example 135, 5-Butyl-4-piperazin-1-yl-2-pyridin-4-yl-pyrido[3,4-d]pyrimidine] |
| < 0.1 µM | CCc1cncc2nc(-c3ccncc3)nc(N3CCNCC3)c12 [Example 136, 1-[5-ethyl-2-(pyridin-4-yl)pyrido[3,4-d]pyrimidin-4-yl]piperazine] |
| < 0.1 µM | CCc1cncc2nc(-c3ccncc3)nc(NC[C@@H](N)Cc3ccccc3)c12 [Example 137, N-[(2S)-2-amino-3-phenylpropyl]-5-ethyl-2-(pyridin-4-yl)pyrido[3,4-d]pyrimidin-4-amine] |
| < 0.1 µM | Cc1cncc2nc(-c3ccncc3)nc(N3CCNCC3)c12 [Example 138, 1-[5-methyl-2-(pyridin-4-yl)pyrido[3,4-d]pyrimidin-4-yl]piperazine] |
| < 0.1 µM | c1cc(-c2nc(N3CCNCC3)c3c(C4CC4)cncc3n2)ccn1 [Example 139, 1-[5-cyclopropyl-2-(pyridin-4-yl)pyrido[3,4-d]pyrimidin-4-yl]piperazine] |
| 0.1 to 1 µM | c1ccc(COCc2cncc3nc(-c4ccncc4)nc(N4CCNCC4)c23)cc1 [Example 140, 1-{5-[(benzyloxy)methyl]-2-(pyridin-4-yl)pyrido[3,4-d]pyrimidin-4-yl}piperazine] |
| 0.1 to 1 µM | Clc1cnc(-c2cc[nH]n2)c2nc(-c3ccncc3)nc(N3CCNCC3)c12 [Example 141, 5-Chloro-4-piperazin-1-yl-8-(1H-pyrazol-3-yl)-2-pyridin-4-yl-pyrido[3,4d]pyrimidine] |
| 1 to 10 µM | CN(C)c1ncc(Cl)c2c(N3CCNCC3)nc(-c3ccncc3)nc12 [Example 142, 5-chloro-N,N-dimethyl-4-(piperazin-1-yl)-2-(pyridin-4-yl)pyrido[3,4-d]pyrimidin-8-amine] |
| < 0.1 µM | C=C(C)c1cncc2nc(-c3ccncc3)nc(N3CCNCC3)c12 [Example 143, 5-Isopropenyl-4-piperazin-1-yl-2-pyridin-4-yl-pyrido[3,4-d]pyrimidine] |
| 0.1 to 1 µM | COc1cncc2nc(-c3ccncc3)nc(N3CCCCC3)c12 [Example 151, 5-Methoxy-4-piperidin-1-yl-2-pyridin-4-yl-pyrido[3,4-d]pyrimidine] |
| 1 to 10 µM | COc1cncc2nc(-c3ccncc3)nc(N3CCC(N)(C(N)=O)C3)c12 (stereo not shown) [Example 152, 3-Amino-1-(5-methoxy-2-pyridin-4-yl-pyrido[3,4-d]pyrimidin-4-yl)-pyrrolidine-3-carboxylic acid amide] |
| 1 to 10 µM | COc1cncc2nc(-c3ccncc3)nc(N3CCC(N)(C(=O)Nc4ccccc4)C3)c12 (stereo not shown) [Example 153, 3-Amino-1-(5-methoxy-2-pyridin-4-yl-pyrido[3,4-d]pyrimidin-4-yl)-pyrrolidine-3-carboxylic acid phenylamide] |
